Measured values as given in patent US20140058108A1 (SINOXA PHARMA UG, priority 2010, published 2014).

Legend:
[1] = Antioxidative action / radical trap (binding of oxygen radicals)
Source text: Because of the small amounts of substances contained in the samples and the short life of the reaction products, it was not possible to isolate them for structural clarification.

[2] = test system: Human smooth muscle cells; assay: 5-HT-stimulated cell growth, 3H-thymidine uptake; assay type: cell-based; details: 10 μmol/l test substance, 5-HT 10-8 mol/l, 24 hours; FIG. 2
Description: To determine the cell growth, 3H-thymidine (Amersham) was then added to the cell cultures, and the latter were incubated for 24 hours. After the adhesion of the cells, the culture medium was replaced by a standard medium with 0.2% fetal calf serum to stop growth and incubated again for 48 hours.
In order to test antiproliferative actions of the described substances, the cell cultures were then pre-incubated first at a concentration of 10 μmol/l of the test substances. […] To measure the growth of cells, 3H-thymidine (Amersham) was then added to the cultures, and the latter was incubated for 24 hours. Then, 2 incubations were carried out in iced common salt solution with a phosphate buffer, and then a 30-minute incubation was carried out in iced 10% trichloroacetic acid at 4° C. The cells were then incubated in 0.1 molar NaOH solution (0.5 ml/incubation vessel). After neutralization with acetic acid, the 3H-thymidine uptake was measured with liquid scintillation (as 3× determination).

[3] = test system: monocrotaline-induced pulmonary high pressure in rats; assay: Monocrotaline-induced pulmonary high pressure in rats; assay type: in vivo, male Sprague-Dawley rats; details: MCT 60 mg/kg s.c.; treatment bid via stomach tube days 15-28; measured day 28; lisuride 0.25 mg/kg, terguride 2.5 mg/kg; average ± SEM, N = 6
Source text: Monocrotaline (MCT) is a toxin from plants of the Crotalaria species, which damages the endothelial cells of the pulmonary arteries after a single injection in rats, with the following hypertrophy of the smooth vascular musculature and persistent severe pulmonary high pressure. The MCT-induced pulmonary hypertension in rats is a well-established and validated model of human pulmonary hypertension, and all now-approved therapeutic agents have shown an action in this model, at least when they were used before the toxically-induced tissue remodeling.
MCT (60 mg/kg) was administered subcutaneously as a single injection in male Sprague-Dawley rats, and an identical volume of isotonic common salt solution was injected into the control animals. […]
On day 28 of the experiment, two hours after the last administration of substance, the animals were narcotized with use of pentobarbital. […] The mean arterial system pressure and the systolic pressure were measured in the right heart ventricle. […]
The s.c. injection of MCT, as described above, results in severe damage of the pulmonary vascular endothelium as well as excessive production of connective tissue and development of a pulmonary hypertension. Accumulation of collagen, measured as hydroxyproline content of the pulmonary tissue and increase of the right-ventricular systolic pressure reflect the described structural and functional changes.

[4] = test system: 5-HT-induced effects in rats; details: cited from earlier work
[5] = test system: 5-HT2B receptors of pulmonary arteries in pigs; assay: 5-HT-induced, 5-HT2B-mediated relaxing of PGF2α-pre-contracted pulmonary arteries in pigs (functional receptor assay); assay type: cell-based; details: under physiological conditions; not antagonized by maximum 5-HT concentrations
Source text: (§1) In this case, the pA2 value reflects the negatively decade logarithm of the concentration of an antagonist, which makes it necessary to double the agonist concentration in order to restore the initial effect of the agonist without antagonists.
The vascular reaction in the preparations of pulmonary arteries in pigs, which are pre-contracted by means of PGF2α, were used as an assay for the specific interaction with 5-HT2B receptors (see FIG. 1A). […] Ketanserin is a standard-5HT2A antagonist, SB204741 is a standard-5-HT2B antagonist.

[6] = Stability of lisuride dissolved in water (HPL chromatogram); details: room temperature, FIG. 3A
[7] = target: T1, 5-HT2A receptors of coronary arteries in pigs (Sus scrofa, UniProt P50129); assay: Inhibition of 5-HT2A-mediated, 5-HT-induced contraction of coronary arteries in pigs; assay type: cell-based; details: n in own column
T1 construct: 5-HT2A-mediated contraction of the coronary arteries in pigs; from tissue; host or cells: isolated pig coronary artery
T1 sequence (P50129 whole entry): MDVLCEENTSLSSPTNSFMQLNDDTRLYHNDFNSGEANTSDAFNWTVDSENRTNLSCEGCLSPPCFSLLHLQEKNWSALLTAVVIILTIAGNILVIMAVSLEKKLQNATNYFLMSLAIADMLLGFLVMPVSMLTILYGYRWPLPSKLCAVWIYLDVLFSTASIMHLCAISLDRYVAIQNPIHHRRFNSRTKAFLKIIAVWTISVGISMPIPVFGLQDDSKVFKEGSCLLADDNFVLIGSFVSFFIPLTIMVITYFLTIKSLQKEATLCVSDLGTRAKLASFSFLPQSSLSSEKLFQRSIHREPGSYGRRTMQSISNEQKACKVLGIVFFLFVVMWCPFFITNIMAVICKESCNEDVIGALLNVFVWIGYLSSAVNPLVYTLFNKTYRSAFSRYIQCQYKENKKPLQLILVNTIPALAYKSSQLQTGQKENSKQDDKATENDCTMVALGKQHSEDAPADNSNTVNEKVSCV
Source text: as §1

Structure (SMILES): CCN(CC)C(=O)N[C@H]1C[C@@H]2c3cccc4[nH]cc(c34)C[C@H]2N(C)C1 [Terguride, trans-dihydrolisuride]
- free oxygen radicals taken up by an individual molecule [1]: up to 4
- cell proliferation (3H-thymidine uptake) [2]: Reduction of cell proliferation
- Systolic Right-Ventricular Pressure (RVPsys) [3]: 39 ± 3 mmHG
- 5-HT-induced weight increase of the heart and liver ([4]; rats [Hauso 2007]): prevented
- behavior abnormalities and fibrotic skin changes at the injection sites of 5-HT ([4]; rats [Hauso 2007]): suppressed
- development of pulmonary valve failure ([4]; rats, daily 5-HT over 4 months [Hauso 2007]): not detectable

Structure (SMILES): CCN(CC)C(=O)N[C@H]1C=C2c3cccc4[nH]cc(c34)C[C@H]2N(C)C1 [Lisuride, 3-(9,10-didehydro-6-methylergoline-8alpha-yl)-1,1-diethylurea]
- type of antagonism of the 5-HT2B receptor [5]: irreversible antagonist
- stability dissolved in water [6]: quickly broken down

Structure (SMILES): CCNC(=O)NC1C=C2c3cccc4[nH]cc(c34)CC2N(C)C1 (stereo not drawn) [N″-Monodesethyllisuride]
- 5-HT2A pA2 [7]: 8.29 ± 0.03
